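1) Cells in 96-well plates. 2) Compound, 48 h, 5 concentrations. 3) Linear interpolation between surrounding doses. 4) Unreached endpoint = highest concentration. The concentration for 50% growth inhibition is given as GI50. TGI: total growth inhibition.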
Key:
Assay in all cases: NCI-60 cell line screen, 48 h
[1] = test system: NCI-H522 lung
[2] = test system: M14 melanoma
[3] = test system: SNB-19 CNS
[4] = test system: HCT-116 colon
[5] = test system: NCI-H460 lung
[6] = test system: HOP-62 NSCLC
[7] = test system: CAKI-1 renal
[8] = test system: K-562 leukemia
[9] = test system: SNB-78 CNS
[10] = test system: RPMI-8226 leukemia
[11] = test system: SF-295 CNS
[12] = test system: 786-0 renal
[13] = test system: M19-MEL melanoma
[14] = test system: DMS 273 small cell lung
[15] = test system: UO-31 renal
[16] = test system: TK-10 renal
[17] = test system: UACC-257 melanoma
[18] = test system: IGROV1 ovarian
[19] = test system: LOX IMVI melanoma
[20] = test system: OVCAR-3 ovarian
[21] = test system: HOP-92 NSCLC
[22] = test system: A549 NSCLC
[23] = test system: SK-MEL-2 melanoma
[24] = test system: SK-OV-3 ovarian
[25] = test system: SW-620 colon
[26] = test system: SF-539 CNS
[27] = test system: RXF 393 renal
[28] = test system: MOLT-4 leukemia
[29] = test system: SK-MEL-28 melanoma
[30] = test system: MALME-3M melanoma
[31] = test system: NCI-H226 lung
[32] = test system: DLD-1 colon
[33] = test system: ACHN renal
[34] = test system: SNB-75 CNS
[35] = test system: UACC-62 melanoma
[36] = test system: KM12 colon
[37] = test system: HCT-15 colon
[38] = test system: U251 CNS
[39] = test system: NCI-H23 lung
[40] = test system: SK-MEL-5 melanoma
[41] = test system: SF-268 CNS
[42] = test system: SN12C renal
[43] = test system: CCRF-CEM leukemia
[44] = test system: LXFL 529 NSCLC
[45] = test system: HOP-18 NSCLC
[46] = test system: A498 renal
[47] = test system: HT29 colon
[48] = test system: XF 498 CNS
[49] = test system: DMS 114 small cell lung
[50] = test system: OVCAR-8 ovarian
[51] = test system: OVCAR-4 ovarian
[52] = test system: EKVX NSCLC
[53] = test system: OVCAR-5 ovarian
[54] = test system: HCC-2998 colon
[55] = test system: KM20L2 colon
[56] = test system: SR leukemia
[57] = test system: COLO 205 colon

COc1cc2c(cc1OC)[Se]c1cc(OC)c(OC)cc1[Se]2
GI50 [1]: > 100 µM | TGI [1]: > 100 µM | GI50 [2]: > 100 µM | TGI [2]: > 100 µM | GI50 [3]: > 100 µM | TGI [3]: > 100 µM | GI50 [4]: > 100 µM | TGI [4]: > 100 µM | GI50 [5]: > 100 µM | TGI [5]: > 100 µM | GI50 [6]: > 100 µM | TGI [6]: > 100 µM | GI50 [7]: > 100 µM | TGI [7]: > 100 µM | GI50 [8]: 5.08 µM | TGI [8]: > 100 µM | GI50 [9]: > 100 µM | TGI [9]: > 100 µM | GI50 [10]: > 100 µM | TGI [10]: > 100 µM | TGI [11]: > 100 µM | GI50 [12]: > 100 µM | TGI [12]: > 100 µM | GI50 [13]: > 100 µM | TGI [13]: > 100 µM | TGI [14]: > 100 µM | GI50 [15]: > 100 µM | TGI [15]: > 100 µM | GI50 [16]: > 100 µM | TGI [16]: > 100 µM | GI50 [17]: > 100 µM | TGI [17]: > 100 µM | GI50 [18]: > 100 µM | TGI [18]: > 100 µM | TGI [19]: > 100 µM | GI50 [20]: > 100 µM | TGI [20]: > 100 µM | TGI [21]: > 100 µM | GI50 [22]: > 100 µM | TGI [22]: > 100 µM | GI50 [23]: > 100 µM | TGI [23]: > 100 µM | GI50 [24]: > 100 µM | TGI [24]: > 100 µM | GI50 [25]: > 100 µM | TGI [25]: > 100 µM | TGI [26]: > 100 µM | TGI [27]: > 100 µM | TGI [28]: > 100 µM | GI50 [29]: > 100 µM | TGI [29]: > 100 µM | GI50 [30]: > 100 µM | TGI [30]: > 100 µM | GI50 [31]: > 100 µM | TGI [31]: > 100 µM | GI50 [32]: > 100 µM | TGI [32]: > 100 µM | GI50 [33]: > 100 µM | TGI [33]: > 100 µM | TGI [34]: > 100 µM | GI50 [35]: > 100 µM | TGI [35]: > 100 µM | GI50 [36]: 3.54 µM | TGI [36]: > 100 µM | TGI [37]: > 100 µM | GI50 [38]: > 100 µM | TGI [38]: > 100 µM | GI50 [39]: > 100 µM | TGI [39]: > 100 µM | GI50 [40]: > 100 µM | TGI [40]: > 100 µM | GI50 [41]: > 100 µM | TGI [41]: > 100 µM | GI50 [42]: > 100 µM | TGI [42]: > 100 µM | GI50 [43]: > 100 µM | TGI [43]: > 100 µM | GI50 [44]: > 100 µM | TGI [44]: > 100 µM | TGI [45]: > 100 µM | GI50 [46]: > 100 µM | TGI [46]: > 100 µM | GI50 [47]: 4.32 µM | TGI [47]: > 100 µM | GI50 [48]: > 100 µM | TGI [48]: > 100 µM | GI50 [49]: 4.77 µM | TGI [49]: > 100 µM | GI50 [50]: > 100 µM | TGI [50]: > 100 µM | GI50 [51]: > 100 µM | TGI [51]: > 100 µM

O=C(c1ccccc1)c1nc2ccc(Cl)cc2c2c1Cc1ccccc1-2
TGI [52]: > 100 µM | TGI [1]: > 100 µM | TGI [2]: > 100 µM | TGI [3]: > 100 µM | TGI [4]: > 100 µM | TGI [6]: > 100 µM | TGI [7]: > 100 µM | TGI [8]: > 100 µM | TGI [10]: > 100 µM | TGI [11]: > 100 µM | TGI [12]: > 100 µM | TGI [13]: > 100 µM | TGI [14]: > 100 µM | TGI [15]: > 100 µM | TGI [16]: > 100 µM | TGI [17]: > 100 µM | TGI [18]: > 100 µM | TGI [53]: > 100 µM | TGI [19]: > 100 µM | TGI [20]: > 100 µM | TGI [22]: > 100 µM | TGI [54]: > 100 µM | TGI [23]: > 100 µM | TGI [25]: > 100 µM | TGI [55]: > 100 µM | TGI [26]: > 100 µM | TGI [27]: > 100 µM | TGI [56]: > 100 µM | TGI [28]: > 100 µM | TGI [29]: > 100 µM | TGI [30]: > 100 µM | TGI [31]: > 100 µM | TGI [32]: > 100 µM | TGI [33]: > 100 µM | TGI [34]: > 100 µM | TGI [35]: > 100 µM | TGI [36]: > 100 µM | TGI [37]: > 100 µM | TGI [38]: > 100 µM | TGI [39]: > 100 µM | TGI [40]: > 100 µM | TGI [41]: > 100 µM | TGI [42]: > 100 µM | TGI [44]: > 100 µM | TGI [57]: > 100 µM | TGI [45]: > 100 µM | TGI [48]: > 100 µM | TGI [49]: > 100 µM | TGI [50]: > 100 µM | TGI [51]: > 100 µM

— PubChem BioAssay (NCI)
